In one assay the test system is RNase 1-118. Particulars: combined with RNase 1-118; cited from earlier work.
For assay [1], the system named is thyroxine antibody. The assay can be described thus: Reference displacement curve, thyroxine vs thyroxine-S-peptide, colorimetric, CentrifiChem 500 (Example XVIII). Type of assay: binding. Particulars: for Rate: antibody. As to the method:
This Example illustrates the generation of a reference displacement curve for determination of unknown concentrations of the analyte thyroxine where a colorimetric substrate is utilized along with a centrifugal fast analyzer.
(§1) The following reagents were utilized:
a. Thyroxine S-peptide labeled analyte: Material prepared in the manner described in Examples I-IV was diluted by a factor of 1:400 with 0.1M sodium acetate buffer of pH 5.0;
b. Antibody: Antiserum was diluted by a factor of 1:300 with 0.1M sodium acetate buffer of pH 5.0;
c. Substrate: Uridine 3'-α-naphthyl phosphate;
d. S-protein: Sigma purified commercial material was brought to 2.5×10^-6 M in 0.1M sodium acetate buffer;
e. Dye: The 1,5-naphthalene disulfonic acid stabilized salt of diazo-psulfanilic acid (25 mg.) was dissolved in 1 ml of 0.1N HCl;
f. Standards: Thyroxine standards at concentrations of 0, 40, 80, 120, and 200 ng/ml were made up in a human serum containing solution.
The following settings were utilized on the CentrifiChem° 500 centrifugal fast analyzer: rotor temp, 30°; filter, 520 nm; To, 10 sec; t, 2 min; ABS 1.0 u; Blank, hold; test mode, Term; Print out, ABS; conc. factor, 0; test code 0.
The standard (20 ul), antibody and polypeptide labeled analyte were pipetted into the sample wells of channels 3 to 14 of the transfer disc. A mixture of 5 ul of the dye, 300 ul of substrate, and 20 ul of S-protein, was pipetted into the corresponding reagent wells along with 10 ul of acetate buffer. The loaded transfer disc was placed on the rotor, and the instrument was spun. […]

The test system of assay [2] is thyroxine antibody. The assay can be described thus: Reference displacement curve, thyroxine vs thyroxine-S-peptide, fluorogenic substrate (Example XVII). Particulars: for Rate: antibody. Type of assay: binding. As to the method: This Example illustrates the generation of a reference displacement curve using thyroxine-S peptide as the labeled analyte and 5'-0-acetyl uridine-3'-(4 methylumbelliferone-7-yl phosphate) as a fluorogenic substrate. The following reagents were prepared:
a. Thyroxine-S-Peptide labeled analyte: Material prepared as described in Examples I-IV, was diluted by a factor of 1:2000 in 0.1M sodium acetate buffer of pH 5.0.
b. Antibody: Antiserum was diluted by a factor of 1:2000 using 0.1M sodium acetate buffer of pH 5.0;
c. S-Protein: Purified material was brought to 2×10^-5 M using 0.1M sodium acetate buffer of pH 5.0;
d. Substrate: Seventeen milligrams of 5'-0-acetyl-2'-0-(tetrahydropyran-2-yl) uridine 3'-(4 methylumbelliferone-7-yl ammonium phosphate was stirred in 0.01HCl for 45 minutes and then extracted with ether. Fifty ml of 0.01M sodium acetate buffer, of pH 5, was then added to give the substrate solution;
e. Thyroxine antibody standards: Thyroxine solutions were freshly prepared to provide thyroxine concentrations of 0 ng/ml, 30 ng/ml, 60 ng/ml, 120 ng/ml, and 240 ng/ml in an aqueous medium containing human serum.
Seventy-five microliters of the standard thyroxine solution was pretreated with 20 ul of 0.5N sodium hydroxide […] at room temperature. One hundred microliters of the antibody and 300 ul of thyroxine-S peptide labeled analyte were then added, and the mixture was incubated for 30 minutes at room temperature. A mixture consisting of 1.8 ml of substrate and 100 ul S-protein was then added. After incubating for 5 minutes, the rate of increase of fluorescence was monitored over a 10 minute period. An Aminco Filter Fluorometer (Model J4-7440) equipped with an automatic 20 sample changer (Model 047-67059) was utilized with excitation at 325 nm and emission at 440 nm. The data points were taken for each sample at times 0, 5, and 10 minutes by an automatic data acquisition system. Table 7 summarizes the results:
In order to obtain a displacement curve, the data for duplicate points are averaged; and the % bound fraction (% B/Bo) is calculated from the equation: [formula] where Rate Bn is the rate corresponding to a non-zero standard and Rate Bo is that corresponding to the zero standard solution.

In assay [3] the test system is thyroxine antibody. The assay can be described thus: Reference displacement curve, thyroxine, interconverted pipetting of labeled analyte and S-protein (Example XIX). It counts as binding. Particulars: for 10^3 Rate: antibody.
From the text: This Example illustrates the interconversion of the thyroxine labeled analyte and S-protein where the S-protein is pipetted into the sample well and the labeled analyte is pipetted into the reagent well, in contrast to the preceding example where the reverse arrangement was used. Additionally, this Example illustrates the formulation of two reagent solutions for direct pipetting into the sample and reagent wells of the transfer disc using an automatic pipetter (Centrifichem® model P-500 pipetter). Thirdly, this Example illustrates the enhancement of dynamic range in relation to that obtained in Example XVIII by increasing the concentrations of the antibody and S-protein.
as §1
a. Thyroxine-S-peptide labeled analyte: Material prepared in the manner described in Examples I-IV was diluted by a factor of 1:50 with 0.1M sodium acetate buffer of pH 5.0;
b. Antibody: Antiserum was diluted by a factor of 1:30 with 0.1M sodium acetate buffer of pH 5.0;
c. Substrate: Uridine 3'-(α-naphthyl phosphate);
d. S-protein: Sigma purified commercial material was brought to […] in 0.1M sodium acetate buffer;
e. Dye: As in Example XVIII.
f. Standards: As in Example XVIII.
A mixture consisting of 500 ul of the substrate, 100 ul of the dye, and 250 ul of the conjugate was prepared. (Reagent A)
A second solution (Reagent B) was prepared by combining 300 ul of the antibody, reagent, 300 ul of the S-protein and 150 ul of 0.1N. sodium acetate buffer.
The following protocol was utilized for the assay: The standard (20 ul) and 65 ul of de-ionized H2 O were delivered to the sample well of the transfer disc by the sample probe of the P-500 pipetter. The reagent B (50 ul) was delivered to the sample well with the second reagent probe of the pipetter. Reagent A (250 ul) was delivered to the reagent well of the transfer disc with the first reagent probe of the pipetter. All three pipetting operations were done simultaneously in one cycle. The transfer disc was then placed on the CentrifiChem® 400 for analysis. The following settings were utilized for the CentrifiChem®: temperature, 30°; filter, 520 nm; T0, 10 seconds; T, 2 minutes; Abs, 3.0 u; Blank, hold; test mode, Term; print out, Abs; concentration factor, 0; test code, 0.

Assay [4] deals with thyroxine antibody. The assay can be described thus: Effect of pH on immunoreactivity in the assay of thyroxine. Type of assay: binding. The note with it: pH from 5 to about 7. The text has this: The effect of pH on the assay should likewise be considered. […] While the naphthyl phosphate substrate described herein may be suitably used at a pH of 5, the preferred umbelliferone-type substrate needs a pH in the range of about 6 to about 8 for useful operation in the […] mode. Sensitivities in pH can perhaps be overcome by changing the charge characteristics of the labeled analyte, as by incorporating more basic groups on the analyte molecule. Also, the use of a more avid antisera for thyroxine should be helpful. It may also be helpful to modify the linking chemistry (e.g.--the site, type of linking groups).

Values joined by “and” are separate entries in the source; they are usually repeats but may differ in a detail not shown here. Equal entries are not always repeated.

In the case of “tetradecapeptide 111 to 124: synthesized tetradecapeptide corresponding to residues 111 to 124 of the original RNase (EGNPYVPVHFDASV; UniProt P61823 137-150, looked up, fragment)”, the “recovery of catalytic activity of RNase” value in the assay with RNase 1-118 is “essentially the full catalytic activity of RNase was recovered”.
With `N[C@@H](Cc1cc(I)c(Oc2cc(I)c(O)c(I)c2)c(I)c1)C(=O)O` [thyroxine], the “rate response between the 0 standard and 200 ng/ml standard” value in the assay on thyroxine antibody [1] (0 to 200 ng/ml) is 3.5 m.a.u./min. The Rate was 0.0208 a.u./min and 0.0222 a.u./min in the assay with thyroxine antibody [1] (standard 40 ng/ml); 0.0217 a.u./min and 0.0218 a.u./min in the assay on thyroxine antibody [1] (standard 80 ng/ml); 0.0224 a.u./min in the assay on thyroxine antibody [1] (standard 120 ng/ml); 0.0230 a.u./min with thyroxine antibody [1] (standard 200 ng/ml); 13.00 mv/min and 13.57 mv/min with thyroxine antibody [2] (thyroxine standard 30 ng/ml); 13.30 mv/min and 13.40 mv/min with thyroxine antibody [2] (thyroxine standard 60 ng/ml). The Rate in the assay with thyroxine antibody [2] (thyroxine standard 120 ng/ml) was 13.68 mv/min; in the assay with thyroxine antibody [2] (thyroxine standard 240 ng/ml) it was 14.15 mv/min and 14.17 mv/min. The “% B/B0 (% bound fraction)” value in the assay on thyroxine antibody [2] (standard 30 ng/ml) worked out at 67%; in the assay with thyroxine antibody [2] (standard 60 ng/ml), 64%; in the assay on thyroxine antibody [2] (standard 120 ng/ml) it was 51%; with thyroxine antibody [2] (standard 240 ng/ml) it was 32%. Besides, the “Rate (average of duplicates)” value is 13.28 mv/min with thyroxine antibody [2] (standard 30 ng/ml), 13.35 mv/min in the assay on thyroxine antibody [2] (standard 60 ng/ml), 13.68 mv/min in the assay on thyroxine antibody [2] (standard 120 ng/ml) and 14.16 mv/min in the assay on thyroxine antibody [2] (standard 240 ng/ml). Besides, the “spread in rate covering the range of standard concentrations” value in the assay on thyroxine antibody [3] (0-200 ng/ml) is given as 12 milliabsorbance units/min. Also, the “spread in rate relative to Example XVIII” value in the assay on thyroxine antibody [3] (0-200 ng/ml) is on record as “about 4 times”. Also, the “10^3 Rate” value was 57.8 a.u./min. and 58.3 a.u./min with thyroxine antibody [3] (standard 40 ng/ml); 60.4 a.u./min. and 59.5 a.u./min in the assay with thyroxine antibody [3] (standard 80 ng/ml); 62.0 a.u./min. and 64.8 a.u./min in the assay with thyroxine antibody [3] (standard 120 ng/ml); 65.3 a.u./min with thyroxine antibody [3] (standard 200 ng/ml). In the assay with thyroxine antibody [4], the “immunoreactivity as the pH is increased” value was “immunoreactivity is decreased”.

Source of the values: patent US4785080A, “Labeled analytes” (Baker Instruments Corporation, priority 1985, dated 1988).
